Experimental data reported in patent publication US20240254121A1, “ALKYLAMIDE SUBSTITUTED, ANNULATED IMIDAZOLES AND USE THEREOF AS INSECTICIDES” (Bayer Aktiengesellschaft, priority 2021, published 2024).

Columns and labels:
Format in all cases: in vivo
[1] = test system: fall armyworm larvae (Spodoptera frugiperda); experiment: Spodoptera frugiperda spray test; conditions: 168 h, maize leaf sections, after 7 days
Experimental: Spodoptera frugiperda—Spray Test • Solvent: 78.0 parts by weight acetone • 1.5 parts by weight dimethylformamide • Emulsifier: alkylarylpolyglycol ether
To produce a suitable preparation of active compound, 1 part by weight of active compound is mixed with the stated amount of solvents and is diluted with water, containing an emulsifier concentration of 1000 ppm, to the desired concentration. Further test concentrations are prepared by dilution with emulsifier containing water.
Maize (Zea mays) leaf sections are sprayed with a preparation of the active ingredient of the desired concentration. Once dry, the leaf sections are infested with fall armyworm larvae (Spodoptera frugiperda).
After 7 days mortality in % is determined. 100% means all caterpillars have been killed and 0% means none of the caterpillars have been killed.

[2] = test system: cotton aphid (Aphis gossypii); experiment: Aphis gossypii oral test; conditions: 120 h, after 5 days
Experimental: Aphis gossypii—Oral Test • Solvent: 100 Parts by Weight Acetone
(§1) To produce a suitable preparation of active compound, 1 part by weight of active compound is mixed with the stated amount of solvent, and the concentrate is diluted with water to the desired concentration.
50 μL compound solution is filled in microtiter plates and 150 μL IPL41 insect medium (33%+15% sugar) is added to obtain a total volume of 200 μL per well. Afterwards the plates are sealed with parafilm through which a mixed population of the cotton aphid (Aphis gossypii) can suck on the compound preparation.
(§2) After 5 days mortality in % is determined. 100% means all aphids have been killed and 0% means none of the aphids have been killed.

[3] = test system: larvae of the southern green stink bug (Nezara viridula); experiment: Nezara viridula spray test; conditions: 96 h, barley plants, after 4 days
Experimental: Nezara viridula—Spray Test • Solvent: 78.0 parts by weight of acetone • 1.5 parts by weight of dimethylformamide • Emulsifier: alkylarylpolyglycol ether
(§3) To produce a suitable preparation of active compound, 1 part by weight of active compound is mixed with the stated amount of solvent, and the concentrate is diluted with water, containing an emulsifier concentration of 1000 ppm, to the desired concentration. Further test concentrations are prepared by dilution with emulsifier containing water.
Barley plants (Hordeum vulgare) are sprayed with a test solution containing the desired concentration of the active ingredient and are infested with larvae of the southern green stink bug (Nezara viridula).
After 4 days mortality in % is determined. 100% means all the stink bugs have been killed; 0% means none of the stink bugs have been killed.

[4] = test system: green peach aphid (Myzus persicae); experiment: Myzus persicae oral test; conditions: 120 h, after 5 days
Experimental: Myzus persicae—Oral Test • Solvent: 100 parts by weight acetone
as §1
50 μL compound solution is filled in microtiter plates and 150 μL IPL41 insect medium (33%+15% sugar) is added to obtain a total volume of 200 μL per well. Afterwards the plates are sealed with parafilm through which a mixed population of the green peach aphid (Myzus persicae) can suck on the compound preparation.
as §2

[5] = test system: cattle tick larvae (Rhipicephalus microplus); experiment: Rhipicephalus (Boophilus) microplus in-vitro contact test, larval cattle tick (strain Parkhurst, resistant against synthetic pyrethroids); conditions: 1 μg/cm^2 (=100 g/ha), after 48 hours, read-out: efficacy (larvae dead or moribund)
Experimental: Rhipicephalus (Boophilus) Microplus—In-Vitro Contact Tests Larval Cattle Tick (Strain Parkhurst, Resistant Against Synthetic Pyrethroids)
9 mg compound is solved in 1 mL acetone and diluted with acetone to the desired concentration. 250 μL of the test solution is filled in 25 mL glass test tubes and homogeneously distributed on the inner walls by rotation and tilting on a shaking device (2 h at 30 rpm). With a compound concentration of 900 ppm, an inner surface of 44.7 cm^2 and a homogeneous distribution, a dose of 5 μg/cm^2 is achieved.
After the solvent has evaporated, each test tube is filled with 20-50 cattle tick larvae (Rhipicephalus microplus), closed with a perforated lid and incubated in a horizontal position at 85% relative humidity and 27° C. in an incubator. After 48 hours efficacy is determined. The larvae are patted on the ground of the tubes and negative geotactic behavior is recorded.
An efficacy of 100% means all larvae are dead or moribund; 0% means no larvae are dead or moribund.

[6] = test system: adult mosquitoes Aedes aegypti strain MONHEIM; experiment: Aedes aegypti test (AEDSAE surface treatment & contact assay); conditions: 24 hours after contact, read-out: efficacy (mortality); for mortality at 20 mg/m2: surface concentration 20 mg/m^2, 30 minutes exposure
Experimental: Aedes aegypti Test (AEDSAE Surface Treatment & Contact Assay) • Solvent: Aceton+2000 ppm rapeseed oil methyl ester (RME)
In order to produce a sufficient, active ingredient containing solution it is necessary to solve the test compound in the solvent-mix (acetone at 2 mg/ml/RME 2000 ppm). This solution is pipetted onto a glazed tile and after evaporation of the acetone, adult mosquitoes of the species Aedes aegypti strain MONHEIM are placed onto the dried surface. The exposure time is 30 minutes. Mortality in percent (%) is determined 24 hours after contact of the insects to the treated surface. 100% mortality means that all tested insects are dead, whereas 0% means that no insect died.

[7] = test system: larvae of the banded cucumber beetle (Diabrotica balteata); experiment: Diabrotica balteata spray test; conditions: 168 h, 100 g/ha (=32 μg/well), wheat seeds, after 7 days, read-out: efficacy (seedling growth)
Experimental: Diabrotica Balteata—Spray Test
• Solvent: 78.0 Parts by Weight of Acetone • 1.5 parts by weight of dimethylformamide • Emulsifier: Alkylarylpolyglycol Ether
as §3
Soaked wheat seeds (Triticum aestivum) are placed in a multiple well plate filled with agar and some water and are incubated for 1 day to germinate (5 seeds per well). The germinated wheat seeds are sprayed with a test solution containing the desired concentration of the active ingredient. Afterwards each unit is infected with 10-20 larvae of the banded cucumber beetle (Diabrotica balteata).
After 7 days efficacy in % is determined. 100% means all the seedlings have grown up like in the untreated, uninfected control; 0% means none of the seedlings have grown.

[8] = test system: adult flies Musca domestica strain WHO-N; experiment: Musca domestica test (MUSCDO surface treatment & contact assay); conditions: 24 hours after contact, read-out: efficacy (mortality); for mortality at 4 mg/m2: surface concentration 4 mg/m^2, 30 minutes exposure; for mortality at 20 mg/m2: surface concentration 20 mg/m^2, 30 minutes exposure
Experimental: Musca domestica Test (MUSCDO Surface Treatment & Contact Assay) • Solvent: Aceton+2000 ppm rapeseed oil methyl ester (RME)
In order to produce a sufficient, active ingredient containing solution it is necessary to solve the test compound in the solvent-mix (acetone at 2 mg/ml/RME 2000 ppm). This solution is pipetted onto a glazed tile and after evaporation of the acetone, adult flies of the species Musca domestica strain WHO-N are placed onto the dried surface. The exposure time is 30 minutes. Mortality in percent (%) is determined 24 hours after contact of the insects to the treated surface. 100% mortality means that all tested insects are dead, whereas 0% means that no insect died.

[9] = test system: adult mosquitoes Culex quinquefasciatus strain P00; experiment: Culex quinquefasciatus test (CULXFA surface treatment & contact assay); conditions: surface concentration 4 mg/m^2, 30 minutes exposure, 24 hours after contact, read-out: efficacy (mortality)
Experimental: Culex quinquefasciatus Test (CULXFA Surface Treatment & Contact Assay) • Solvent: Aceton+2000 ppm rapeseed oil methyl ester (RME)
In order to produce a sufficient, active ingredient containing solution it is necessary to solve the test compound in the solvent-mix (acetone at 2 mg/ml/RME 2,000 ppm). This solution is pipetted onto a glazed tile and after evaporation of the acetone, adult mosquitoes of the species Culex quinquefasciatus strain P00 are placed onto the dried surface. The exposure time is 30 minutes. Mortality in percent (%) is determined 24 hours after contact of the insects to the treated surface. 100% mortality means that all tested insects are dead, whereas 0% means that no insect died.

SMILES	mortality at 100 g/ha [1]	mortality at 500 g/ha [3]	pest or weed control at 32 µg/disc, 100 g/ha [7]	also measured
C[C@H](NC(=O)c1cc(Cl)cc(S(C)(=O)=O)c1)c1nc2cccnc2n1-c1ccc(C#N)cn1 [Example I-5]	100%	100%	–	mortality at 100 ppm [2]: 100%; mortality at 20 ppm [4]: 100%
C[C@H](NC(=O)c1cc(C#N)cc(C(C)(C)C#N)c1)c1nc2cccnc2n1-c1ccc(C#N)cn1 [Example I-7]	100%	–	–	pest or weed control at 1 µg/cm2, 100 g/ha [5]: 90%; mortality at 20 mg/m2 [6]: 80 to 100%; mortality at 100 ppm [2]: 100%; mortality at 20 ppm [4]: 100%
CC(NC(=O)c1cc(OC(F)(F)F)cc(C2(C#N)CC2)c1)c1nc2cccnc2n1-c1ccc(Cl)cn1 (stereo not shown) [Example I-11]	100%	–	100%	pest or weed control at 1 µg/cm2, 100 g/ha [5]: 90%; mortality at 20 mg/m2 [6]: 80 to 100%; mortality at 4 mg/m2 [8]: 80 to 100%; mortality at 20 mg/m2 [8]: 80 to 100%
CC(NC(=O)c1cc(OC(F)(F)F)cc(S(C)(=O)=O)c1)c1nc2cccnc2n1-c1ccc(Cl)cn1 (stereo not shown) [Example I-12]	100%	100%	100%	–
CC(NC(=O)c1cc(OC(F)(F)F)cc(C(C)(C)C#N)c1)c1nc2cccnc2n1-c1ccc(Cl)cn1 (stereo not shown) [Example I-14]	83%	–	–	pest or weed control at 1 µg/cm2, 100 g/ha [5]: 100%; mortality at 20 mg/m2 [6]: 80 to 100%; mortality at 20 mg/m2 [8]: 80 to 100%
C[C@H](NC(=O)c1cc(OC(F)(F)F)cc(OC(F)(F)F)c1)c1nc2cccnc2n1-c1ccc(C#N)cn1 [Example I-16]	100%	–	100%	pest or weed control at 1 µg/cm2, 100 g/ha [5]: 100%; mortality at 4 mg/m2 ([6]; surface concentration 4 mg/m^2, 30 minutes exposure): 80 to 100%; mortality at 20 mg/m2 [6]: 80 to 100%; mortality at 4 mg/m2 [8]: 80 to 100%; mortality at 20 mg/m2 [8]: 80 to 100%
Cc1ccc2nc(C(C)NC(=O)c3cc(Cl)cc(OC(F)(F)F)c3)n(-c3ccc(C#N)cn3)c2n1 (stereo not shown) [Example I-20]	100%	–	–	–
Cc1ccc2nc(C(C)NC(=O)c3cc(OC(F)(F)F)cc(S(C)(=O)=O)c3)n(-c3ccc(C#N)cn3)c2n1 (stereo not shown) [Example I-23]	100%	–	–	–
CNC(=O)c1ccc(-n2c(C(C)NC(=O)c3cc(OC(F)(F)F)cc(S(C)(=O)=O)c3)nc3cccnc32)nc1 (stereo not shown) [Example I-28]	–	100%	–	–
CC(NC(=O)c1cc(OC(F)(F)F)cc(S(C)(=O)=O)c1)c1nc2cccnc2n1-c1ccc(C(=O)N(C)C)cn1 (stereo not shown) [Example I-29]	–	90%	–	–
CC(NC(=O)c1cc(C(F)(F)F)cc(C(F)(F)F)c1)c1nc2cccnc2n1-c1ccc(C(N)=O)cn1 (stereo not shown) [Example I-30]	–	100%	–	–
C[C@H](NC(=O)c1cc(C(F)(F)F)cc(C(F)(F)F)c1)c1nc2ncccc2n1-c1ccc(C#N)cn1 [Example I-32]	100%	–	–	–
CC(NC(=O)c1cc(OC(F)(F)F)cc(C2CC2)c1)c1nc2ncccc2n1-c1ccc(Cl)cn1 (stereo not shown) [Example I-33, N-[1-[I-(5-chloro-2-pyridyl)imidazo[4,5-b]pyridin-2-yl]ethyl]-3-cyclopropyl-5-(trifluoromethoxy) benzamide]	100%	–	–	mortality at 4 mg/m2 [9]: 80 to 100%
CC(NC(=O)c1cc(Cl)cc(OC(F)(F)F)c1)c1nc2cc(F)cnc2n1-c1ccc(C#N)cn1 (stereo not shown) [Example I-34]	100%	–	100%	–
CC(NC(=O)c1cc(OC(F)(F)F)cc(S(=O)(=O)C(F)F)c1)c1nc2cccnc2n1-c1ccc(C#N)cn1 (stereo not shown) [Example I-36]	100%	–	100%	–
CC(NC(=O)c1cc(OC(F)(F)F)cc(C(C)(F)F)c1)c1nc2cccnc2n1-c1ccc(C#N)cn1 (stereo not shown) [Example I-37]	100%	–	100%	–
CC(NC(=O)c1cc(C(F)(F)F)cc(C(F)(F)F)c1)c1nc2cnccc2n1-c1ccc(Cl)cn1 (stereo not shown) [Example I-39, N-[1-[1-(5-chloro-2-pyridyl)imidazo[4,5-c]pyridin-2-yl]ethyl]-3,5-bis(trifluoromethyl)benzamide]	–	100%	100%	–
CC(NC(=O)c1cc(Br)cc(OC(F)(F)F)c1)c1nc2cccnc2n1-c1ccc(C#N)cn1 (stereo not shown) [Example I-41]	100%	–	100%	–
CC(NC(=O)c1cc(C#N)cc(OC(F)(F)F)c1)c1nc2cccnc2n1-c1ccc(C#N)cn1 (stereo not shown) [Example I-42]	100%	–	–	–
CC(NC(=O)c1cc(C(F)F)cc(C(F)F)c1)c1nc2cccnc2n1-c1ccc(C#N)cn1 (stereo not shown) [Example I-44]	83%	–	–	–
